Measurements taken from US20160244436A1, “NOVEL FUNCTIONALIZED 5-(PHENOXYMETHYL)-1,3-DIOXANE ANALOGS EXHIBITING CYTOCHROME P450 INHIBITION AND THEIR METHOD OF USE” (CORTENDO AB (PUBL), priority 2013, published 2016).

Columns and labels:
Type in all cases: cell-based
recombinant CYP-11 = biological target: T1, recombinant CYP-11 (Homo sapiens, UniProt P15538); test: Cyp11 assay: AD293 cells over-expressing recombinant CYP-11, cortisol formation from 11-deoxycortisol by LC/MS
T1 construct: expressed in transfected cells; host or cells: AD293
T1 sequence (P15538 25-503): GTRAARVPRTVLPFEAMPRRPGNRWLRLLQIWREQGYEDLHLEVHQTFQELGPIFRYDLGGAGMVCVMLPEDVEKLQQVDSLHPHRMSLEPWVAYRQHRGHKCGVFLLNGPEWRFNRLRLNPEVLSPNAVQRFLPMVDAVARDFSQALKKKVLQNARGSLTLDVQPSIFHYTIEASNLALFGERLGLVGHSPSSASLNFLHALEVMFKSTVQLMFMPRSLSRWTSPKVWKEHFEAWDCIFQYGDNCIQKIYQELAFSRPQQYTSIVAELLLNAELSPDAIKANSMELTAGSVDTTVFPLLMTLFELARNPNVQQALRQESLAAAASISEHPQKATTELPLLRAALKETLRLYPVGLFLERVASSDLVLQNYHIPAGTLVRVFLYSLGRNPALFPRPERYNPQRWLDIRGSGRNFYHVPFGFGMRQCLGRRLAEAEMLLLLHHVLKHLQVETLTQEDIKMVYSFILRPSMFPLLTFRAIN
Description: Cyp11 assay protocol: AD293 cells that stably over-express recombinant CYP-11 were seeded in 96 well plates coated with poly D-lysine (15,000 cell per well) and incubated at 37° C. for 24 hours in Dulbecco's Modified Eagle Medium (DMEM) with Fetal Bovine Serum (FBS) that is stripped of hormones by charcoal treatment. The media is then removed, the cells are washed once with Phosphate buffer saline solution, and 50 μL Dulbecco's Modified Eagle Medium (DMEM) with Fetal Bovine Serum (FBS) that is stripped of hormones by charcoal treatment is added. Compounds of the disclosure are then added to the wells in eight concentration spanning 10 μM to 4.5 nM, and the plates are incubated for an additional 60 minutes at 37° C. 11-deoxycortisol is then added (2.0 μM) and the plates are incubated for an additional 12 hours at 37° C. After incubation, 50 uL of the supernatant (medium) is transferred into a fresh plate and 150 uL of an acetonitrile solution containing 200 ng/ml of Telmisartan is added. The sample is mixed and then placed in a centrifuge at 2000 rpm for 5 minutes. 100 uL of the supernatant is transferred into a fresh 96 well deep well plate, 100 uL of 1:1 methanol:water was added, the solution was mixed and then analyzed by LC/MS for the presence of cortisol using an Agilent 1200 RRLC/ABSCIEX API4000 LC-MS or Shimadzu Prominance/ABSCIEX API4000 LC-MS to determine IC5os of the compounds of the disclosure.

recombinant CYP-21 = biological target: T2, recombinant CYP-21 (Homo sapiens, UniProt P08686); test: Cyp21 assay: AD293 cells over-expressing recombinant CYP-21, 11-deoxycortisol formation from 17α-OH Progesterone by LC/MS
T2 construct: expressed in transfected cells; host or cells: AD293
T2 sequence (P08686 1-495): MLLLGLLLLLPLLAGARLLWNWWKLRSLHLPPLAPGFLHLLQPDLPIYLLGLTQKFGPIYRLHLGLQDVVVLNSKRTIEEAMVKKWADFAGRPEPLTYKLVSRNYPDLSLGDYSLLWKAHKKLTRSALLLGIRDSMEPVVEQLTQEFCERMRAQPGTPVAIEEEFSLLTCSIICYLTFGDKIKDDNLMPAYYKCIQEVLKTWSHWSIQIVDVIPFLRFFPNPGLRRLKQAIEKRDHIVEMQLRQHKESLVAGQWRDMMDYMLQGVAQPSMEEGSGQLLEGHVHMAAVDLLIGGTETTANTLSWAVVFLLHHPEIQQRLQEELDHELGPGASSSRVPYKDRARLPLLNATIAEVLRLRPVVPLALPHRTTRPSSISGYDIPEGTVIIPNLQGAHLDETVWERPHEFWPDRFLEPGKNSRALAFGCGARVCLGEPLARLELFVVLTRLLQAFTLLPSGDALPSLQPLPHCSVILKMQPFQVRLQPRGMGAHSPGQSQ
Description: Cyp21 assay protocol: AD293 cells that stably over-express recombinant CYP-21 were seeded in 96 well plates coated with poly D-lysine (10,000 cell per well) and incubated at 37° C. for 24 hours in Dulbecco's Modified Eagle Medium (DMEM) with Fetal Bovine Serum (FBS) that is stripped of hormones by charcoal treatment. The media is then removed, the cells are washed once with Phosphate buffer saline solution, and 50 μL Dulbecco's Modified Eagle Medium (DMEM) with Fetal Bovine Serum (FBS) that is stripped of hormones by charcoal treatment is added. Compounds of the disclosure are then added to the wells in eight concentration spanning 10 μM to 4.5 nM, and the plates are incubated for an additional 60 minutes at 37° C. 17α-OH Progesterone is then added (1.0 μM) and the plates are incubated for an additional 45 minutes at 37° C. After incubation, 50 uL of the supernatant (medium) is transferred into a fresh plate and 150 uL of an acetonitrile solution containing 200 ng/ml of Telmisartan is added. The sample is mixed and then placed in a centrifuge at 2000 rpm for 5 minutes. 100 uL of the supernatant is transferred into a fresh 96 well deep well plate, 100 uL of 1:1 methanol:water was added, the solution was mixed and then analyzed by LC/MS for the presence of 11-deoxycortisol using an Agilent 1200 RRLC/ABSCIEX API4000 LC-MS or Shimadzu Prominance/ABSCIEX API4000 LC-MS to determine IC5os of the compounds of the disclosure.

[1] = tested on: Bile Acid (Cyp7A surrogate); test: Bile acid secretion / synthesis inhibition (Cyp7A surrogate)

For CC(=O)N1CCN(c2ccc(CO[C@H]3CO[C@](Cn4ccnc4)(c4ccc(Cl)cc4Cl)OC3)cc2)CC1 [drawing 112], the IC50 (recombinant CYP-11) was 12 nM, the IC50 (recombinant CYP-21) was 208 nM and the IC50 [1] was 880 nM.
